Reference: paper PMC13266999, “Designing Antibiotics with Inherent Resistance to Efflux as a Strategy to Revive Discovery against Multidrug-Resistant Pathogens” (Journal of Medicinal Chemistry, 2026)
In brackets after ≈: the same amount, converted by molar mass. Like-named read-outs stand apart in the source and are kept apart here.

Assays:
[1] = test system: NorA overexpressing strain NCTC 13616; assay: Reserpine growth (efflux inhibition) assay; settings: 0.5x MIC with vs without reserpine
E. coli = assay: MIC (microbroth dilution); type: cell-based; settings: Escherichia coli
Procedure: (§1) All bacteria were maintained on tryptic soy agar (TSA), except Streptococcus spp., which were maintained on Columbia agar plates containing 5% horse blood. […] Bacteria were grown to stationary phase in liquid culture overnight, with shaking at 200 rpm, before being back diluted to the relevant starting concentration for each assay below. MICs were measured by the microbroth dilution method. […] Absorbance at OD600 was read on a CLARIOstar spectrophotometer (BMG Labtech) and the MIC was defined as the minimum concentration of compound where no visible growth was detected. […] MICs were also performed in the presence of the outer membrane permeator, polymyxin b nonapeptide (PMBN) following the same MIC method but with the following variation. The 2-fold dilution series of compound was prepared as above, then 50 μL of PMBN at a final concentration of 30 μg/mL was added to relevant wells, while 50 μL/well of blank media was added to the remaining wells. Bacteria were then added at 50 μL/well for a starting concentration as above. […] The MICs were read and defined as above. All animal procedures were performed by the contract research organization Pharmacology Discovery Services Taiwan in accordance with the Guide for the Care and Use of Laboratory Animals. The procedures were approved by the Institutional Ethics Committee of Pharmacology Discovery Services Taiwan, Ltd. (approval no. AB127662), in compliance with animal welfare legislation in Taiwan.

Acinetobacter baumannii = assay: MIC (microbroth dilution); type: cell-based
Procedure: All bacteria were maintained on tryptic soy agar (TSA), except Streptococcus spp., which were maintained on Columbia agar plates containing 5% horse blood. All bacterial assays were carried out in tryptic soy broth (TSB), except for Streptococcus spp. which were grown in cation-adjusted Mueller Hinton broth containing 2.5% lysed horse blood. Bacteria were grown to stationary phase in liquid culture overnight, with shaking at 200 rpm, before being back diluted to the relevant starting concentration for each assay below. MICs were measured by the microbroth dilution method. […] Absorbance at OD600 was read on a CLARIOstar spectrophotometer (BMG Labtech) and the MIC was defined as the minimum concentration of compound where no visible growth was detected. The compounds were prepared as a DMSO stock and equivalent concentrations of DMSO had no effect on bacterial growth. MICs were also performed in the presence of the outer membrane permeator, polymyxin b nonapeptide (PMBN) following the same MIC method but with the following variation. The 2-fold dilution series of compound was prepared as above, then 50 μL of PMBN at a final concentration of 30 μg/mL was added to relevant wells, while 50 μL/well of blank media was added to the remaining wells. Bacteria were then added at 50 μL/well for a starting concentration as above. Thirty μg/mL of PMBN had no effect on bacterial growth. The MICs were read and defined as above. All animal procedures were performed by the contract research organization Pharmacology Discovery Services Taiwan in accordance with the Guide for the Care and Use of Laboratory Animals. The procedures were approved by the Institutional Ethics Committee of Pharmacology Discovery Services Taiwan, Ltd. (approval no. AB127662), in compliance with animal welfare legislation in Taiwan.

S. aureus [2] = assay: MIC (microbroth dilution); type: cell-based, Staphylococcus aureus; settings: for MIC: Staphylococcus aureus
Outline: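 Overnight stationary-phase cultures back-diluted and tested by broth microdilution with 2-fold compound series. MIC is lowest concentration with no visible growth, with OD600 also read. Separate runs included polymyxin B nonapeptide at 30 μg/mL final as outer-membrane permeabilizer.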

S. aureus [3] = assay: Serial passaging, MIC of adapted strains; type: cell-based; settings: Staphylococcus aureus
Procedure: MICs were performed on the first and 10th passage.

A. baumannii strain AYE = assay: Time-kill assay; type: cell-based; settings: 4 × MIC
Procedure: Time-kill assays were performed as defined previously.

K. pneumoniae = assay: MIC (microbroth dilution); type: cell-based, Klebsiella pneumoniae; settings: Klebsiella pneumoniae, read-out: MIC
Procedure: as §1

[4] = reported values; cited from earlier work

COc1c(N2CC[C@@H](Nc3ncccn3)C2)c(F)cc2c(=O)c(C(=O)O)cn(C3CC3)c12 [Compound 51, (R)-1-Cyclopropyl-6-fluoro-8-methoxy-4-oxo-7-(3-(pyrimidin-2-ylamino)pyrrolidin-1-yl)-1,4-dihydroquinoline-3-carboxylic acid]
efflux liability in reserpine assay [1]: minimal shift
MIC (E. coli; 319238/UR): 16 µg/mL (≈ 36.4 µM)
MIC (E. coli; LEC006): 0.25 µg/mL (≈ 0.569 µM)
MIC (E. coli; LEC007): 0.125 µg/mL (≈ 0.284 µM)
MIC (E. coli; LEC077): 4 µg/mL (≈ 9.1 µM)
MIC (E. coli; LEC081): 2 µg/mL (≈ 4.55 µM)
MIC (E. coli; NCTC10418, NCTC 10418): 0.125 µg/mL (≈ 0.284 µM)
MIC (E. coli; NCTC11954, NCTC 11954): 0.125 µg/mL (≈ 0.284 µM)
MIC (E. coli; NCTC12241, NCTC 12241): 0.06 µg/mL (≈ 0.137 µM)
MIC (E. coli; NCTC12923, NCTC 12923): ≤ 0.125 µg/mL
MIC (Acinetobacter baumannii; Acinetobacter baumannii, 86, oxa23): 16 µg/mL (≈ 36.4 µM)
MIC (Acinetobacter baumannii; Acinetobacter baumannii, A601 colS): ≤ 0.03 µg/mL
MIC (Acinetobacter baumannii; Acinetobacter baumannii, ATCC17978, ATCC 17978, read-out: MIC): ≤ 0.125 µg/mL
MIC (Acinetobacter baumannii; Acinetobacter baumannii, BAA1709, BAA-1709, read-out: MIC): 0.06 µg/mL (≈ 0.137 µM)
MIC (Acinetobacter baumannii; Acinetobacter baumannii, BAA1710, BAA-1710 (AYE), read-out: MIC): 4 µg/mL (≈ 9.1 µM)
MIC (Acinetobacter baumannii; Acinetobacter baumannii, BAA2093, BAA-2093, read-out: MIC): 0.03 to 0.06 µg/mL (≈ 0.0683 to 0.137 µM)
MIC (Acinetobacter baumannii; Acinetobacter baumannii, NCTC10303, NCTC 10303, read-out: MIC): 0.06 µg/mL (≈ 0.137 µM)
MIC (Acinetobacter baumannii; Acinetobacter baumannii, NCTC12156, NCTC 12156, read-out: MIC): 0.125 µg/mL (≈ 0.284 µM)
MIC (Acinetobacter baumannii; Acinetobacter baumannii, NCTC13302, NCTC 13302, oxa24, read-out: MIC): 4 µg/mL (≈ 9.1 µM)
MIC (Acinetobacter baumannii; Acinetobacter baumannii, NCTC13424, NCTC 13424, oxa23, read-out: MIC): > 32 µg/mL
MIC (Acinetobacter baumannii; Acinetobacter baumannii, T strain): 8 µg/mL (≈ 18.2 µM)
MIC (Acinetobacter baumannii; Acinetobacter baumannii, UKA1, oxa23, read-out: MIC): 2 µg/mL (≈ 4.55 µM)
MIC (Acinetobacter baumannii; Acinetobacter baumannii, UKA2, Low resistance, read-out: MIC): 4 µg/mL (≈ 9.1 µM)
MIC (Acinetobacter baumannii; Acinetobacter baumannii, UKA9, read-out: MIC): 0.06 µg/mL (≈ 0.137 µM)
MIC (Acinetobacter baumannii; Acinetobacter baumannii, UKA12, oxa23, read-out: MIC): 2 µg/mL (≈ 4.55 µM)
MIC (Acinetobacter baumannii; Acinetobacter baumannii, UKA13, oxa23, read-out: MIC): 2 µg/mL (≈ 4.55 µM)
MIC (Acinetobacter baumannii; Acinetobacter baumannii, UKA15, oxa23, read-out: MIC): 2 µg/mL (≈ 4.55 µM)
MIC (Acinetobacter baumannii; Acinetobacter baumannii, UKA19, read-out: MIC): 0.25 µg/mL (≈ 0.569 µM)
MIC (Acinetobacter baumannii; Acinetobacter baumannii, W1, read-out: MIC): 4 µg/mL (≈ 9.1 µM)
fold more active than moxifloxacin (S. aureus [2]): 4–8 fold
MIC (S. aureus [2]; ATCC9144, ATCC 9144, read-out: MIC): ≤ 0.03 µg/mL
MIC (S. aureus [2]; NCTC13277, NCTC 13277, read-out: MIC): 0.125 to 0.25 µg/mL (≈ 0.284 to 0.569 µM)
MIC (S. aureus [2]; NCTC13616, NCTC 13616, read-out: MIC): 0.125 µg/mL (≈ 0.284 µM)
MIC (S. aureus [2]; SA-1199, read-out: MIC): 0.004 µg/mL (≈ 0.0091 µM)
MIC (S. aureus [2]; SA-1199B (NorA-overexpressing)): 0.004 µg/mL (≈ 0.0091 µM)
MIC (S. aureus [3]; 1199B WT): 0.008 µg/mL
MIC (S. aureus [3]; 1199B adapted to 4 x MIC of Compound 7): 0.008 µg/mL
MIC (S. aureus [3]; 1199B adapted to 4 x MIC of Compound 46): 0.03 µg/mL
MIC (S. aureus [3]; 1199B adapted to 4 x MIC of Compound 50): 0.125 µg/mL
MIC (S. aureus [3]; 1199B adapted to 4 x MIC of Compound 51): 0.015 µg/mL
MIC (S. aureus [3]; 1199 WT): 0.004 µg/mL
MIC (S. aureus [3]; 1199 adapted to 4 x MIC of Compound 7): ≤ 0.008 µg/mL
MIC (S. aureus [3]; 1199 adapted to 4 x MIC of Compound 46): ≤ 0.008 µg/mL
MIC (S. aureus [3]; 1199 adapted to 4 x MIC of Compound 50): 0.06 µg/mL
MIC (S. aureus [3]; 1199 adapted to 4 x MIC of Compound 51): 0.015 µg/mL
MIC (S. aureus [3]; NCTC13616, NCTC 13616 WT): 0.125 µg/mL
MIC (S. aureus [3]; NCTC13616, NCTC 13616 adapted to 4 x MIC of Compound 7): 0.25 µg/mL
MIC (S. aureus [3]; NCTC13616, NCTC 13616 adapted to 4 x MIC of Compound 46): 0.125 µg/mL
MIC (S. aureus [3]; NCTC13616, NCTC 13616 adapted to 4 x MIC of Compound 50): 0.25 µg/mL
MIC (S. aureus [3]; NCTC13616, NCTC 13616 adapted to 4 x MIC of Compound 51): 0.5 µg/mL
time-kill profile (A. baumannii strain AYE): rapid bactericidal activity
MIC (K. pneumoniae; M6): 1 to 2 µg/mL (≈ 2.28 to 4.55 µM)
MIC (K. pneumoniae; NCTC13368, NCTC 13368): 4 µg/mL (≈ 9.1 µM)
MIC (K. pneumoniae; TW3): 0.5 µg/mL (≈ 1.14 µM)

Nc1nc(-n2cc(C(=O)O)c(=O)c3cc(F)c(N4CC(O)C4)c(Cl)c32)c(F)cc1F [delafloxacin]
plasma protein binding [4]: 84%
